Laboratory results from patent publication US20100152114A1, “Antioxidant activity of GH-RH Antagonists” (priority 2008, published 2010).
Ends that are not written are not given here.

What was measured:
Format in all cases: cell-based
N-nitrotyrosine = assay: Protein oxidation: nitrotyrosine immunoblot in LNCaP cells; settings: 1 μM, 72 hour, control R.I: 2.903
Protocol: (§1) The detection of the carbonyl groups, the nitrotyrosine and the lipid peroxidation was performed with the Oxiselect Protein carbonyl Immunoblot, the Oxiselect Nitrotyrosine Immunoblot Kit and the Oxiselect Malondialdehyde Immunoblot Kit respectively (Cell Biolabs, San Diego, Calif.) according the manufacturer s instructions. The detection of the lipid peroxidation using a primary rabbit anti-MDA antibody (Cell Biolabs, San Diego, Calif.) according the manufacturer' instructions. The β-actin signal was used as control.
(§2) LNCaP prostate cancer cell line cultured in vitro were exposed to 1 μM JMR-132 or 1 μM GHRH(1-29)NH2. The levels of the oxidation of the proteins were determined by the detection of the N-nitrotyrosine and the protein carbonyl groups. Both were elevated in the cells exposed to GHRH (1-29)NH2 (R.I: 3.282, 7.415) and decreased in the cells incubated with GHRH antagonist JMR-132 (R.I: 1.251, 4.275), as compared to control (R.I: 2.903, 5.846). The levels of the lipid peroxidation, determined by the detection of the malondialdehyde (MDA), were increased in cells exposed to GHRH (1-29)NH2 (R.I:4.89) and decreased in cells incubated with GHRH antagonist JMR-132 (R.I: 2.973) as compared to control (R.I: 4.433). […]

thioredoxin 1 = assay: Western Blot of thioredoxin 1 in LNCaP cells; settings: 1 μM, 72 hour exposure, control R.I: 0.210
Protocol: (§3) FIG. 7: is a Western Blot analysis of expression of the antioxidant enzymes TRX1, NQ01, GPX1 and SOD1 in LNCaP prostate cancer cell line after 72 hour exposure to GHRH antagonist JMR-132 and GHRH(1-29)NH2 n=2.
(§4) Prostate cancer cells LNCaP and breast cancer cells MCF-7 were obtained from American Type Culture Collection (Manassas, Va.) and were cultured as described previously. The antibodies that detect P53, PCNA, GPX1, SOD1, NQ01, Thioredoxin 1, COX2 and COX IV were purchased from Cell Signalling (Danvers, Mass.). The antibodies that detect β actin, NFκB50, pNFκB50, caspase 3 and its cleaved form were purchased from Santa Cruz Biotechnology (Santa Cruz, Calif.). The antibodies against GHRH-R (batch number: SV95) and SV1 (batch number: JH 2317/5) were raised in our laboratory. The signals for the immunoreactive proteins were visualized in a Chemi Doc XRS system (Biorad, Hercules, Calif.). The western Blot assay as well the quantification analysis of the blots was performed as described previously.
(§5) LNCaP prostate cancer cell line cultured in vitro was exposed to 1 μM JMR-132 and GHRH(1-29)NH2. The expression levels of the detoxifying enzymes were measured by Western Blot. The GPX1 (M.W: 22 Kda) protein expression was higher in the cells exposed to GHRH (1-29)NH2 (R.I: 0.126) and lower in the cells incubated with GHRH antagonist JMR-132 (R.I: 0.035), as compared to control (R.I:0.107). […]

malondialdehyde (MDA) = assay: Lipid peroxidation: malondialdehyde immunoblot in LNCaP cells; settings: 1 μM, 72 hour, control R.I: 4.433
Protocol: as §1, §2

caspase 3 = assay: Western Blot of caspase 3 in LNCaP cells; settings: 1 μM, 72 hours, control R.I: 0.108
Protocol: (§6) (A): is a Western Blot analysis of expression of the phosphorylated NFκB p50, caspase 3 protein and its cleaved form in LNCaP prostate cancer cell line after exposure to GHRH antagonist JMR-132 and GHRH (1-29)NH2. n=2
as §4
(§7) LNCaP cells cultured in vitro were exposed to 1 μM GHRH antagonist JMR-132 and 1 μM GHRH(1-29)NH2. The expression levels of NFκB p50, the phosphorylated NFκB p50, caspase 3 (M.W: 35 KDa) and the cleaved caspase 3 were detected by Western Blot. […]

reactive oxygen species = assay: Intracellular generation of reactive oxygen species (aminophenyl fluorescein) in LNCaP cells; settings: 10^−6 M, 30 minutes at 37° C.
Protocol: Percentage increase or decrease are expressed vs LNCaP cells cultured in the absence of JMR-132 or GHRH (1-29)NH2. *** (P<0.005).
The detection of the Reactive Oxygen Species was carried out using aminophenyl fluorescein, an indicator for the highly reactive oxygen species (Invitrogen, Carlsbad, Calif., USA). This fluorescein derivative is non fluorescent until it reacts with the hydroxyl radical, peroxynitrite anion or hypochlorite anion. […] LNCaP prostate cancer cells were seeded in 200 μl of RPMI 1640 containing 10 μM aminophenyl fluorescein at a density of 10^3 cells/well onto a 48-well plate and were incubated for 30 minutes at 37° C. with GHRH (1-29)NH2 or JMR-132 at a concentration of 10^−6 M. The fluorescence was measured using a fluorescence plate reader (VICTOR^3 Multilabel Plate Reader, Perkin Elmer, Shelton, Conn., USA) with an excitation wavelength of 490 nm and an emission wavelength of 515 nm.
LNCaP prostate cancer cell line cultured in vitro were exposed to 1 μM JMR-132 or 1 μM GHRH(1-29)NH2. The levels of the oxidation of the proteins were determined by the detection of the N-nitrotyrosine and the protein carbonyl groups. Both were elevated in the cells exposed to GHRH (1-29)NH2 (R.I: 3.282, 7.415) and decreased in the cells incubated with GHRH antagonist JMR-132 (R.I: 1.251, 4.275), as compared to control (R.I: 2.903, 5.846). […]

COX 2 = assay: Western Blot of COX 2 in LNCaP cells; settings: 1 μM, 72 hour incubation, control R.I: 0.822
Protocol: (§8) FIG. 4: is a Western Blot analysis of expression of the enzyme COX2 and COXIV enzymes in LNCaP prostate cancer cell line after 72 hour incubation with GHRH antagonist JMR-132 and GHRH(1-29)NH2. n=2
as §4
(§9) After LNCaP prostate cancer cells cultured in vitro were exposed to 1 μM GHRH antagonist JMR-132 and GHRH(1-29)NH2, the expression levels of the enzymes COX 2 and COX IV were measured by Western Blot. […]

cleaved caspase 3 = assay: Western Blot of cleaved caspase 3 in LNCaP cells; settings: 1 μM, 72 hours, control R.I: 0.320
Protocol: as §6, §4, §7

NFκB p50 = assay: Western Blot of NFκB p50 in LNCaP cells; settings: 1 μM, 72 hours
Protocol: (B): is a Western Blot analysis of expression of the NFκB p50. n=2
as §4, §7

COX IV = assay: Western Blot of COX IV in LNCaP cells; settings: 1 μM, 72 hour incubation, control R.I: 0.139
Protocol: as §8, §4, §9

[1] = tested on: Proliferating Cell Nuclear Antigen (PCNA); assay: Western Blot of PCNA expression in LNCaP cells; settings: control R.I: 0.656
Protocol: (B) is a Western Blot analysis of expression of the Proliferating Cell Nuclear Antigen (PCNA) in LNCaP prostate cancer cell line after exposure to GHRH antagonist JMR-132, and GHRH(1-29)NH2 n=2.
as §4
(§10) LNCaP prostate cancer cells were exposed to two concentrations of GHRH(1-29)NH2 and JMR-132. […] However, GHRH (1-29)NH2 at 0.1 μM concentration stimulated the proliferation rate of LNCaP cells by 13%. GHRH antagonist JMR-132 at the doses of 0.1 μM and 1 μM decreased the proliferation of LNCaP prostate cancer cell line by 32% and 37% respectively. In addition, the expression levels of the PCNA (M.W: 36 KDa) were evaluated by Western Blot. The PCNA protein expression was increased in the cells exposed to 0.1 μM and 1 μM of GHRH (1-29)NH2 (R.I: 0.77 and 0.925 respectively) and decreased in the cells that incubated with 0.1 μM of GHRH antagonist JMR-132. (R.I: 0.495) as compared to control (R.I: 0.656).

SOD1 = assay: Western Blot of SOD1 in LNCaP cells; settings: 1 μM, 72 hour exposure, only detectable with GHRH (1-29)NH2
Protocol: as §3, §4, §5

[2] = tested on: wild-type p53 tumor suppressor protein; assay: Western Blot of wild-type p53 expression in LNCaP cells; settings: 72 hour exposure, control R.I: 0.436
Protocol: as §4
LNCaP prostate cancer cell line cultured in vitro was exposed to two concentrations of JMR-132 and GHRH(1-29)NH2 and the expression level of the p53 tumor suppressor protein (M.W: 53 KDa) was measured by Western Blot. The p53 protein expression was higher in the cells exposed to 0.1 μM and 1 μM GHRH antagonist JMR-132 (R.I: 0.583 and 0.658 respectively) and lower in the cells incubated with 0.1 μM and 1 μM GHRH (1-29)NH2 (R.I: 0.376 and 0.264 respectively) as compared to control (R.I: 0.436)

GPX1 = assay: Western Blot of GPX1 in LNCaP cells; settings: 1 μM, 72 hour exposure, control R.I: 0.107
Protocol: as §3, §4, §5

NQ01 = assay: Western Blot of NQ01 in LNCaP cells; settings: 1 μM, 72 hour exposure, control R.I: 0.175
Protocol: as §3, §4, §5

phosphorylated NFκB p50 = assay: Western Blot of phosphorylated NFκB p50 in LNCaP cells; settings: 1 μM, 72 hours, control R.I: 0.521
Protocol: as §6, §4, §7

[3] = tested on: LNCaP prostate cancer cell line; assay: Cell proliferation rate assay in LNCaP cells; settings: vs LNCaP cells cultured without peptide, 72 hours incubation (FIG. 1)
From the text: (A) is a graphic presentation of the changes in the proliferation rate of the LNCaP prostate cancer cell line after exposure to GHRH antagonist JMR-132 and GHRH (1-29)NH2. Percentage increase or decrease are expressed vs LNCaP cells cultured in the absence of JMR-132 or GHRH (1-29)NH2*(P<0.05), **(P<0.005).
The rate of the cell proliferation […] microscope using the trypan blue assay or a Z series Coulter Counter (Beckman Coulter, Fullerton, Calif., USA). The data are expressed as the mean±SEM. Statistical evaluation of the results was performed by the Student's t test (two-tailed). P values shown are against the control group.
as §10

protein carbonyl groups = assay: Protein oxidation: protein carbonyl immunoblot in LNCaP cells; settings: 1 μM, 72 hour, control R.I: 5.846
Protocol: as §1, §2

Substance: GHRH(1-29)NH2 (YADAIFTNSYRKVLGQLSARKLLQDIMSR-NH2; UniProt P01286 32-60, looked up, fragment) [Growth Hormone-Releasing Hormone (1-29) amide, agonist peptide used for comparison with the antagonist]
- N-nitrotyrosine level, protein oxidation (R.I) (N-nitrotyrosine): 3.282
- levels of the thioredoxin 1 protein (R.I) (thioredoxin 1): 0.277
- lipid peroxidation, malondialdehyde (MDA) (R.I) (malondialdehyde (MDA)): 4.89
- expression of caspase 3 protein (R.I) (caspase 3): 0.083
- generation of the reactive oxygen species, higher than control (reactive oxygen species): 36%
- COX 2 protein expression (R.I) (COX 2): 0.928
- expression of cleaved caspase 3 (R.I) (cleaved caspase 3): 0.182
- expression of the NFκB (R.I), not influenced (NFκB p50): 0.766
- COX IV protein expression (R.I) (COX IV): 0.237
- PCNA protein expression (R.I) ([1]; 0.1 μM): 0.77
- PCNA protein expression (R.I) ([1]; 1 μM): 0.925
- SOD1 protein expression (R.I) (SOD1): 0.111
- p53 protein expression (R.I) ([2]; 0.1 μM): 0.376
- p53 protein expression (R.I) ([2]; 1 μM): 0.264
- GPX1 protein expression (R.I) (GPX1): 0.126
- NQ01 protein expression (R.I) (NQ01): 0.196
- expression of the phosphorylated NFκB (R.I) (phosphorylated NFκB p50): 0.623
- increase (stimulation) of the proliferation rate of LNCaP cells ([3]; 0.1 μM): 13%
- increase of the proliferation rate of LNCaP cells ([3]; 1 μM): 7%
- protein carbonyl groups level, protein oxidation (R.I) (protein carbonyl groups): 7.415

Substance: [PhAc^0-Tyr^1, D-Arg^2, Cpa^6, Ala^8, Har^9, Tyr(Me)^10, His^11, Abu^15, His^20, Nle^27, D-Arg^28, Har^29]hGH-RH(1-29)NH2 [JMR-132]
- N-nitrotyrosine level, protein oxidation (R.I) (N-nitrotyrosine): 1.251
- levels of the thioredoxin 1 protein (R.I) (thioredoxin 1): 0.196
- lipid peroxidation, malondialdehyde (MDA) (R.I) (malondialdehyde (MDA)): 2.973
- expression of caspase 3 protein (R.I) (caspase 3): 0.120
- generation of the reactive oxygen species, lower than control (reactive oxygen species): 23%
- COX 2 protein expression (R.I) (COX 2): 0.532
- expression of cleaved caspase 3 (R.I) (cleaved caspase 3): 0.391
- expression of the NFκB (R.I), not influenced (NFκB p50): 0.786
- COX IV protein expression (R.I) (COX IV): 0.077
- PCNA protein expression (R.I) ([1]; 0.1 μM): 0.495
- p53 protein expression (R.I) ([2]; 0.1 μM): 0.583
- p53 protein expression (R.I) ([2]; 1 μM): 0.658
- GPX1 protein expression (R.I) (GPX1): 0.035
- NQ01 protein expression (R.I) (NQ01): 0.025
- expression of the phosphorylated NFκB (R.I) (phosphorylated NFκB p50): 0.451
- decrease of the proliferation of LNCaP prostate cancer cell line ([3]; 0.1 μM): 32%
- decrease of the proliferation of LNCaP prostate cancer cell line ([3]; 1 μM): 37%
- protein carbonyl groups level, protein oxidation (R.I) (protein carbonyl groups): 4.275
